Test results from paper PMC12552953, “SA-XV, a 15-amino acid fragment of host defense peptide S100A12, targets mitochondria and is protective against fungal infections” (The Journal of Biological Chemistry, 2025).
Where two headings read alike, the source gives them in different places. Where no end group is shown, it is not given here.

Legend:
[1] = test system: T7 RNA polymerase, plasmid DNA; assay: In vitro transcription assay; format: biochemical; details: 2 h, 37 °C, agarose gel
Method: In vitro transcription assay was done using the commercial kit Riboprobe System-T7 (Promega), according to the instructions for positive control samples but adding different concentrations of peptide to the reactions. As a negative control, the DNA template was omitted from the reaction mix. After 2 h of incubation at 37 °C, samples were run in a 1.2% agarose gel in TAE buffer and imaged using the Gel Doc System (Bio-Rad).

F. solani = assay: Murine model of F. solani keratitis; details: 48 h postinfection; SA-XV at 0 and 6 h or 6 and 18 h, AmpB at 0 and 6 h
Method: C57BL/6 mice (6–8 weeks old) were anesthetized by intraperitoneal injection using ketamine (8.7 mg/ml) and xylazine (0.5 mg/ml) at a dose of 120 μl/g body weight. While anesthetized, the corneal epithelium was abraded with three parallel vertical and horizontal scratches with a 26-gauge needle, and F. solani (10^7 conidia in 2.5 μl) were added in one eye, whereas the fellow eye received 1× PBS (n = 5). […] One more group of mice (n = 5) was infected with F. solani followed by topical application of AmpB (5 μg) at 0 and 6 h postinfection. Mice were euthanized and examined under a stereomicroscope for density and area of corneal opacification or ulceration 48 h postinfection and photographed using a digital camera. Clinical scores for the opacity were determined in a blinded fashion according to the scale earlier reported ([90]), eyes were enucleated and homogenized using a tissue homogenizer (Ez-Lyzer; Genetix Biotech) in sterile 1× PBS, and homogenates were plated on PDA plates for determining CFUs.

Candida albicans = format: cell-based; details: 48 h
Method: (§1) The ocular clinical isolates of F. solani (n = 5) and C. albicans (n = 5) were obtained from Jhaveri Microbiology Centre, LVPEI, India. The isolates were grown at 29 °C in Sabouraud dextrose broth (SDB; Himedia) for 48 h. Fusarium conidia (spores) were harvested as described before ([69]), centrifuged at 8000 rpm for 15 min to pellet the conidia, washed in 10 mM phosphate buffer (pH 7.4) twice, and resuspended in the same. Candida was grown in SDB overnight, centrifuged, washed, and resuspended similarly. F. solani and C. albicans (1 × 10^4 conidia) were grown in the presence or absence of different concentrations of SA-XV in SDB in a 96-well microtiter plate and incubated at 29 °C for 24 h. Negative controls consisting of fungus only and a positive control consisting of fungus treated with AmpB (55 μM) were incubated simultaneously. The culture was then diluted accordingly and plated in potato dextrose agar (PDA) plates and incubated further for 24 h. The effect of the peptide was determined by quantifying the CFUs on the PDA plates. The effect of SA-XV on A. flavus was also determined similarly. All the experiments were performed at least thrice and in triplicate.

Fusarium solani = format: cell-based; details: 48 h
Method: as §1

[2] = test system: Fusarium spp. ocular clinical isolates; format: cell-based; details: 48 h
Method: as §1

[3] = test system: C. albicans ocular clinical isolates; format: cell-based, Candida albicans; details: 48 h
Method: as §1

C. albicans biofilm = format: cell-based, Candida albicans; details: 24 h, 60 μM
in vitro [4] = format: cell-based, human; details: human
Method: (§2) Supplementary experimental procedures
(§3) Cell culture and in vitro scratch assay
(§4) Aldrich, St. Louis, MO) as described earlier (3). In brief, cells (2x10^4 cells/well) were seeded into 96 well plates and cultured overnight. Cells were treated with different concentration of […]
(§5) reader SpectraMax M3 (Softmax Pro 6.3). […]

[5] = test system: human corneal epithelial cells (HCEC); assay: in vitro; format: cell-based
Method: as §2, §3, §4, §5

[6] = test system: peripheral blood mononuclear cells (PBMC); format: cell-based
Method: as §2, §3, §4, §5

[7] = test system: sinonasal epithelial cells (SNEC); format: cell-based
Method: as §2, §3, §4, §5

chorioallantoic membrane = test system: chorioallantoic membrane; design: species or system hen
Method: as §2
Cell culture and in vitro scratch assay […]
SA-XV was added directly onto the chorioallantoic
M sodium hydroxide solution.

C. albicans = format: cell-based, Candida albicans
Method: Fusarium spp. or Candida spp. (1 × 10^4 conidia) were incubated with 60 μM of FITC-SA-XV at 4 °C or 29 °C or different time points in SDB. The conidia were then washed three times with Milli-Q water and fixed using 4% paraformaldehyde. In some experiments, DAPI (Vectashield) or MitoTracker (Invitrogen) were used to stain specific cell organelles. In a different experiment, cytochrome c was detected in peptide-treated or untreated cells by incubating with anti–cytochrome c antibody (1:100 dilution; BioLegend), followed by Alexa Fluor 488 secondary antibody (1:1000 dilution; Thermo Fisher Scientific). In a separate experiment, the spores were incubated with SA-XV for 4 h in the presence or absence of FD (SR LifeScience Solution) of different molecular weights, washed with Milli-Q water, and fixed using 4% paraformaldehyde. The conidia were imaged using a 63× objective in a confocal microscope (LSM 880; Zeiss).

[8] = increased concentration of SA-XV
Method: Fungal model membrane mimics composing 5:4:3 POPC/POPE/ERG were created following the standard protocol. […] The lipid film was created after drying in a stream of nitrogen gas and lyophilizing overnight. The lipid film was then hydrated with 70 mM calcein dissolved in 10 mM Tris buffer (pH 7.4), followed by vigorous vortexing for 30 min and subjecting to five freeze–thaw cycles in liquid nitrogen and lukewarm water to obtain the dye-entrapped vesicles. The vesicles were then passed through a 100-nm polycarbonate membrane filter stacked in a mini extruder (Avanti Polar Lipids) set up to obtain LUVs. […]
Dye-encapsulated liposomes were suspended in an extravesicular buffer containing 10 mM Tris buffer and 100 mM NaCl (pH 7.4). The leakage of calcein caused by liposome disruption was analyzed by fluorescence emission at 519 nm using a JASCO F-8500 fluorescence spectrophotometer. […] S100A12 was added at functional concentrations, and enhancement in fluorescence was measured. […] Percentage leakage was calculated using the equation. […]
where, F0, F, and FT denote the basal fluorescence intensity, fluorescence intensity after addition of peptides, and maximum fluorescence intensity obtained after addition of 0.1% Triton X-100, respectively.

[9] = peptide-free 41.6 ppm
Method: A single 90° pulse ^31P solid-state NMR experiment was performed on an Agilent NMR spectrometer (DD2) equipped with a 4 mm MAS HXY Solid Probe. Resonance frequencies were 699.88 MHz and 283.31 MHz for ^1H and ^31P, respectively. The TPPM ^1H-decoupled condition was used. LUVs were kept in a diameter of 4 mm Pyrex glass tube sealed with parafilm at an ambient temperature. ^31P spectra were collected with 512∼1000 scans and a recycle delay of 2 s. The spectra were referenced externally to 85% phosphoric acid (0 ppm).
^31P solid-state NMR experiments were performed using the Agilent NMR spectrometer (DD2) functioning at the resonance frequency of 283.31 MHz for ^31P and 699.88 MHz for ^1H, equipped with a 4 mm MAS HXY Solid Probe. MLVs were prepared by dissolving POPC, POPE, and ERG (5:4:3) in chloroform to obtain a stock of 5 mg/ml. The lipid mixtures were dried under nitrogen gas, lyophilized overnight followed by dissolving the lipid film in Tris buffer (pH 7.4), and hydrated for 1 h by vortexing occasionally and freeze–thawing five times. A single 90◦ pulse and 24 kHz TPPM proton decoupling were used. The π/2 pulse lengths were set at 6.8 μs for the ^31P nucleus. MLVs were kept in a 4 mm Pyrex glass tube, which was fit into the MAS probe, and sealed with parafilm. […] MestReNova software (version 8.1) with 250 Hz line broadening was used for spectra processing.

[10] = n = 3
in vitro [11] = details: 25% fetal bovine serum in RPMI media
Method: mentioned previously (5).
supplemented with 25% FBS at 37 °C for 15 min. 100 µl aliquots were taken at different time
intervals (0, 30, 60, 120, 180, and 240 min). 200 µl of 96% ethanol was added to precipitate the
serum followed by centrifugation at 12000 x g for 2 min. 20 µl of the supernatant was subjected
to a LC-20AT reverse phase HPLC system (SHIMADZU, Japan) equipped with Phenomenix
C18 column (250x10 mm, pore size 100 Å, particle size 5 µm), at room temperature, using
acetonitrile and water with 0.1 % TFA as the solvents. A flow rate of 1ml/min was maintained.
The percentage of peptide remaining in the supernatant at different time intervals were analysed
by peak integration using SPINCHROME CFR software, and the area obtained was normalized with respect to the free peptide.

Compound | RNA synthesis in vitro [1] | corneal opacification (F. solani) | MIC90 (Candida albicans) [µM] | MIC90 (Fusarium solani) [µM] | % Growth Inhibition by SA-XV (60 μM) [2] [%] | % Growth Inhibition by SA-XV (60 μM) [3] [%] | inhibition of biofilm formation (C. albicans biofilm) | IC50 at 24 h (in vitro [4]) [µM] | cytotoxicity [5] | cytotoxicity [6] | cytotoxicity [7] | irritation effect (chorioallantoic membrane) | translocation into fungal cells (C. albicans) | penetration into HCECs (HCECs) | dye leakage from fungal-membrane liposomes [8] | chemical shift anisotropy span ([9]; 1 mol% peptide) [ppm] | chemical shift anisotropy span ([9]; 3 mol% peptide) [ppm] | histopathology of corneal sections [10] | corneal findings ([10]; peptide four times at 3 h interval for 2 days, no edema or hyperemia) | half-life at 1 mg/ml (in vitro [11]) [h]
C[C@@H]1[C@H](O)[C@@H](C)/C=C/C=C/C=C/C=C/C=C/C=C/C=C/[C@H](O[C@@H]2O[C@H](C)[C@@H](O)[C@H](N)[C@@H]2O)C[C@@H]2O[C@](O)(C[C@@H](O)C[C@@H](O)[C@H](O)CC[C@@H](O)C[C@@H](O)CC(=O)O[C@H]1C)C[C@H](O)[C@H]2C(=O)O [AmpB, amphotericin B] | did not show any appreciable effect | Distinct reduced opacification |  |  |  |  |  |  |  |  |  |  |  |  |  |  |  |  |  | 
VAIALKAAHYHTHKE [SA-XV] |  |  | 15 | 15 | 99.99 | 99.99 | more than 70% | 302 | did not show any substantial cytotoxicity | did not show any substantial cytotoxicity | did not show any substantial cytotoxicity | nonirritant | translocates | to some extent | Increased dye leakage | 44.6 | 46.4 | no damages or abnormalities | no corneal erosions or opacity | > 3
